Experimental data published in patent US11492347B2 (ENYO PHARMA, priority 2018, dated 2022).

Experiments:
[1] = test system: H1N1 (influenza A/New Caledonia/20/99); experiment: microbe, parasite or virus in culture; format: cell-based; settings: H1N1, A549, 48 h
LXFL 1121 = experiment: Cytotoxicity, propidium iodide based monolayer assay; settings: 96 h; LXFL 1121 lung large cell carcinoma, four days of treatment, T/C=50%; read-out: Absolute IC50
Procedure: (§1) The cytotoxicity was tested for compounds of the invention on five different cell-lines, namely LXFL 1121, MAXF 401, MMXF L-636, PRXF PC-3M and UXF 1138 which are respectively lung large cell carcinoma, breast adeno carcinoma, multiple myeloma, prostate adeno carcinoma and uterine sarcoma.
(§2) A working stock solution of the test compounds was prepared in DMSO at a concentration of 33 mM or 8.25 mM, and small aliquots were stored at −20° C. On each day of an experiment, a frozen aliquot of the working stock solution was thawed and stored at room temperature prior to and during treatment.
(§3) All liquid handling steps were performed using the Tecan Freedom EVO 200 platform. First, serial 2-fold dilutions of the 33 mM DMSO working stock solution were done in DMSO. The DMSO dilutions were then diluted 1:22 into cell culture medium in an intermediate dilution plate. Finally, 10 μl taken from the intermediate dilution plate were transferred to 140 μl/well of the final assay plate. Thus, the DMSO serial dilutions were diluted 1:330 with cell culture medium, and the DMSO concentration in the assay was 0.3% v/v.
Cell lines were routinely passaged once or twice weekly and maintained in culture for up to 20 passages. […]
A modified propidium iodide (PI) based monolayer assay was used to assess the anti-cancer activity of the compounds. Briefly, cells were harvested from exponential phase cultures, counted and plated in 96 well flat-bottom microtiter plates at a cell density of 4,000 to 40,000 cells/well dependent on the cell line's growth rate. […] After an incubation period of 1-2 hours at room temperature, fluorescence (FU) was measured using the Enspire Multimode Plate Reader (excitation λ=530 nm, emission k=620 nm) to quantify the amount of attached viable cells.
Drug effects were expressed in terms of the percentage of the fluorescence signal, obtained by comparison of the mean signal in the treated wells with the mean signal of the untreated controls (expressed by the test-versus-control value, T/C−value [%]): […]

MAXF 401 = experiment: as above; format: cell-based; settings: Homo sapiens, MAXF401, 96 h; MAXF 401 breast adeno carcinoma, four days of treatment, T/C=50%; read-out: Absolute IC50
Procedure: as §1, §2, §3
(§4) Cell lines were routinely passaged once or twice weekly and maintained in culture for up to 20 passages. Most cell lines were grown at 37° C. in a humidified atmosphere with 5% CO2 in RPMI 1640 medium (25 mM HEPES, with L-glutamine, #FG1385, Biochrom, Berlin, Germany) supplemented with 10% (v/v) fetal calf serum (Sigma, Taufkirchen, Germany) and 0.05 mg/mL gentamicin (Life Technologies, Karlsruhe, Germany).
(§5) A modified propidium iodide (PI) based monolayer assay was used to assess the anti-cancer activity of the compounds. Briefly, cells were harvested from exponential phase cultures, counted and plated in 96 well flat-bottom microtiter plates at a cell density of 4,000 to 40,000 cells/well dependent on the cell line's growth rate. The individual seeding density for each cell line ensure exponential growth conditions over the whole or at least the bigger part of the treatment period. After a 24 h recovery period, to allow the cells to resume exponential growth, 10 μl of culture medium (6 control wells/cell line/plate) or of culture medium with test compounds were added. Compounds were applied at ten concentrations in 2-fold increments in duplicates up to 25 μM or 100 μM and treatment continued for four days. After four days of treatment, cells were next washed with 200 μl PBS to remove dead cells and debris, then 200 μl of a solution containing 7 μg/ml propidium iodide (PI) and 0.1% (v/v) Triton X-100 was added. After an incubation period of 1-2 hours at room temperature, fluorescence (FU) was measured using the Enspire Multimode Plate Reader (excitation λ=530 nm, emission k=620 nm) to quantify the amount of attached viable cells.
(§6) Drug effects were expressed in terms of the percentage of the fluorescence signal, obtained by comparison of the mean signal in the treated wells with the mean signal of the untreated controls (expressed by the test-versus-control value, T/C−value [%]):
(§7) [formula] IC values reported reflect the concentration of the test compound that achieves T/C=50%. Calculation was done by 4 parameter non-linear curve fit.

PRXF PC-3M = experiment: as above; format: cell-based; settings: Homo sapiens, 96 h; PRXF PC-3M prostate adeno carcinoma, four days of treatment, T/C=50%; read-out: Absolute IC50
Procedure: as §1, §2, §3, §4, §5, §6, §7

UXF 1138 = experiment: as above; format: cell-based; settings: 96 h; UXF 1138 uterine sarcoma, four days of treatment, T/C=50%; read-out: Absolute IC50
Procedure: as §1, §2, §3, §4, §5, §6, §7

[2] = biological target: T1, CISD1 Gene Product (mitoNEET) (Homo sapiens, UniProt Q9NZ45); experiment: Stability of Fe-S cluster binding of purified NEET protein (absorbance 458 nm); format: biochemical; settings: mitoNEET 20 μM, compound 60 μM
T1 sequence (Q9NZ45 33-108 limits assumed): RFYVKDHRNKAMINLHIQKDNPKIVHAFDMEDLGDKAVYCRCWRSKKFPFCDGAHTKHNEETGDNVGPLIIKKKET
Procedure: (§8) The modulator effect on the NEET proteins encoded by human CISD1, CISD2, and CISD3 genes by the compounds of the invention has been tested and is reported below. Particularly, the biochemical function of the NEET proteins is measured by the stability of Fe—S cluster binding of the purified NEET proteins.
(§9) The Fe—S cluster binding capacity of NEET proteins is known to be coordinated by four amino-acids in a stretch of 16 (three Cysteine and one Histidine). As the lability of the Fe—S cluster of NEET proteins is sensitive to the environment, cluster stability measurements are one of the measures of interactions of NEET proteins with small molecules and compounds. NEET protein/2Fe-2S cluster stability can be assessed by monitoring the decay in absorbance of its characteristic 458-nm peak (characteristic of the oxidized 2Fe-2S cluster) over time. Each NEET protein (mitoNEET, NAF-1 and Miner 2) was tested for its Fe—S binding in the absence or presence of a compound according to the invention (see table 4 below). The rate of cluster release (time in minutes to achieve 50% loss of bound Fe—S cluster) was compared for each NEET protein in the presence of one of the compounds of the invention (in a 1:3 protein:compound molar ratio) relative to each protein alone.
(§10) At pH 6, all the three NEET proteins (mitoNEET, NAF-1 and Miner 2) have a characteristic rate of loss of the bound Fe—S cluster that can be measured by the decrease of absorbance at wavelength 458 nm over time, using a spectrophotometer. Thus, Bis-Tris buffer (100 mM Bis-Tris pH6, 100 mM Nacl) was used at pH 6 to dilute either DMSO (Blank sample: Bis-Tris Buffer pH 6, 66 μM DMSO), DMSO and one of the three NEET proteins (Control sample: Bis-Tris Buffer pH 6, 66 μM DMSO, 20 μM purified NEET protein) or DMSO, one of the three NEET proteins and a compound of the invention (Test sample: Bis-Tris Buffer pH 6, 66 μM DMSO, 20 μM purified NEET protein, 60 μM compound of the invention).
(§11) A reaction mix containing DMSO diluted in the Bis-Tris Buffer with or without a compound of the invention was prepared. The purified NEET protein was the last component added to the reaction mix which was then aliquoted into 4 replicates in 96 wells plates. The absorbance at wavelength 458 nm was taken at 5 minutes intervals at 37° C. with a spectrofluorimeter. The assay run time for CISD2 gene product (NAF-1) was 500 minutes and 180 minutes for both the CISD1gene product (mitoNEET) and the CISD3 gene product (Miner2).
(§12) In addition to time monitoring, residual bound Fe—S cluster to NEET protein was measured at the final point of the spectrometry assay for each Test sample and compared to the Control sample data (in parenthesis table 4). This residual binding is measured by the differential percentage between the absorbance 458 nm at time zero and the absorbance 458 nm at the end of the experiment (i.e. respectively 500 or 180 minutes as described here above), showing the percentage of NEET protein still able to bind a Fe—S cluster.
(§13) Analysis of the absorbance enables the time for which 50% loss of bound Fe—S cluster is reached (i.e. a 50% absorbance decrease at 458 nm) for each Test sample and each Control sample (in parenthesis table 4) to be determined. The data are then compared to determine whether the compound of the invention stabilizes or destabilizes the NEET protein/Fe—S cluster binding.

[3] = biological target: T2, CISD2 Gene Product (NAF-1) (Homo sapiens, UniProt Q8N5K1); experiment: as above; format: biochemical
T2 sequence (Q8N5K1 57-135 limits assumed): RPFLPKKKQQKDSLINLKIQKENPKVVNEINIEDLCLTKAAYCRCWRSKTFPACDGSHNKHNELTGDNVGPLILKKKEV
Procedure: as §8, §9, §10, §11, §12, §13

[4] = biological target: T3, CISD3 Gene Product (Miner2) (Homo sapiens, UniProt P0C7P0); experiment: as above; format: biochemical; settings: compound 60 μM
T3 sequence (P0C7P0 15-127): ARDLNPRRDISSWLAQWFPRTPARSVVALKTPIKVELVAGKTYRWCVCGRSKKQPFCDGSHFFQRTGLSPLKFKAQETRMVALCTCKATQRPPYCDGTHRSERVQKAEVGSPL
Procedure: as §8, §9, §10, §11, §12, §13

| SMILES | IC50 [1] | IC50 (LXFL 1121) | IC50 (MAXF 401) | IC50 (PRXF PC-3M) | IC50 (UXF 1138) | Time (in minutes) to achieve 50% loss of bound cluster (Absorbance 458 nm) ([2]; pH 6, 37° C., run time 180 minutes, vehicle control 80) | Residual cluster bound at end of experiment (Percentage Absorbance 458 nm at time zero) ([2]; pH 6, at 180 minutes, vehicle control 16%) | Time (in minutes) to achieve 50% loss of bound cluster (Absorbance 458 nm) ([3]; NAF-1 20 μM, compound 60 μM, pH 6, 37° C., run time 500 minutes, vehicle control 310 or 210) | Residual cluster bound at end of experiment (Percentage Absorbance 458 nm at time zero) ([3]; NAF-1 20 μM, compound 60 μM, pH 6, at 500 minutes, vehicle control 3%) | Stabiliser or destabiliser of Fe-S cluster binding by CISD2 Gene Product (NAF-1) ([3]; time to 50% cluster loss changed by more than 25% compared to the Control sample, at the concentrations tested) | Residual cluster bound at end of experiment (Percentage Absorbance 458 nm at time zero) ([4]; CISD3 gene product 20 μM, pH 6, at 180 minutes, vehicle control 11%) | Time (in minutes) to achieve 50% loss of bound cluster (Absorbance 458 nm) ([4]; Miner2 20 μM, pH 6, 37° C., run time 180 minutes, vehicle control 60) |
| --- | --- | --- | --- | --- | --- | --- | --- | --- | --- | --- | --- | --- |
| CC1(C)CCc2c(sc(NC(=O)c3ccc(N4CCOCC4)cc3)c2C(=O)O)C1 [Compound #22, 6,6-Dimethyl-2-[(4-morpholinobenzoyl)amino]-5,7-dihydro-4H-benzothiophene-3-carboxylic acid] | 120 nM | 546 nM | 539 nM | 705 nM | 332 nM |  |  |  |  |  |  |  |
| CC1(C)Cc2c(sc(NC(=O)c3ccc(NC4CCOCC4)cc3)c2C(=O)O)C(C)(C)C1 [Compound #35, 5,5,7,7-Tetramethyl-2-[[4-(tetrahydropyran-4-ylamino)benzoyl]amino]-4,6-dihydrobenzothiophene-3-carboxylic acid] | 16.8 nM |  |  | 702 nM | 743 nM | 85 (80) minutes | 26% (16%) | 220 (310) minutes | 13% (3%) | destabilisers | 20% (11%) | 50 (60) minutes |
